Activity calls are given as the source filed them. The calls are words filed in the database; no cut-off is given here.
Tests used:
PC-12 [1] = assay: Neuritogenic activity in rat PC-12 cells assessed as induction of neurite outgrowth at 40 uM incubated for 6 days by microscopic analysis; format: functional
PC-12 [2] = assay: Neuritogenic activity in rat PC-12 cells assessed as induction of neurite outgrowth at 10 to 40 uM incubated for 6 days by microscopic analysis; format: functional, cell-based; conditions: dose 10-40 µM, time 6.0 day
PC-12 [3] = assay: Neuritogenic activity in rat PC-12 cells assessed as induction of neurite outgrowth at 40 uM incubated for 1 to 6 days by microscopic analysis; format: functional, cell-based; conditions: time 1-6 day, TDE = time-dependent effect
PC-12 [4] = assay: Neuritogenic activity in rat PC-12 cells assessed as inhibition of neurite outgrowth at 40 uM incubated for 6 days in presence of K252a by microscopic analysis; format: functional, cell-based; conditions: time 6.0 day
PC-12 [5] = assay: Neuritogenic activity in rat PC-12 cells overexpressing TrKA assessed as inhibition of neurite outgrowth at 40 uM incubated for 6 days by microscopic analysis; format: functional, cell-based; conditions: time 6.0 day
PC-12 [6] = assay: Neuritogenic activity in rat PC-12 cells assessed as effect on TrkA phosphorylation at 40 uM incubated for 4 hrs by Western blot analysis; format: functional, cell-based
PC-12 [7] = assay: Neuritogenic activity in rat PC-12 cells assessed as inhibition of neurite outgrowth at 1 uM incubated for 6 days in presence of SB203580 by microscopic analysis; format: functional, cell-based; conditions: time 6.0 day
PC-12 [8] = assay: Neuritogenic activity in rat PC-12 cells assessed as inhibition of neurite outgrowth at 40 uM incubated for 6 days in presence of PD98059 by microscopic analysis; format: functional, cell-based; conditions: time 6.0 day
PC-12 [9] = assay: Neuritogenic activity in rat PC-12 cells assessed as decrease in ERK phosphorylation at 40 uM and incubated for 1 to 2 hrs by Western blot analysis; format: functional, cell-based; conditions: time 1-2 hrs
PC-12 [10] = assay: Neuritogenic activity in rat PC-12 cells assessed as increase in p38 phosphorylation at 40 uM and measured upto 24 hrs by Western blot analysis; format: functional, cell-based
PC-12 [11] = assay: Neuritogenic activity in rat PC-12 cells assessed as inhibition of neurite outgrowth at 40 uM incubated for 6 days in presence of […] by microscopic analysis; format: functional, cell-based; conditions: time 6.0 day
PC-12 [12] = assay: Neuritogenic activity in rat PC-12 cells assessed as effect on Ras activation at 40 uM incubated for 2 hrs by Western blot analysis; format: functional, cell-based
PC-12 [13] = assay: Neuritogenic activity in rat PC-12 cells assessed as effect on Cdc42 activation at 40 uM incubated for 8 to 12 hrs by Western blot analysis; format: functional, cell-based; conditions: time 8-12 hrs
PC-12 [14] = assay: Cytotoxicity against rat PC-12 cells assessed as reduction in cell viability upto 40 uM; format: toxicity, cell-based; conditions: pc-12, 40 µM
[15] = Toxicity in ICR mouse assessed as effect on body weight at 1 to 10 mg/kg, sc for 14 days; format: organism-based; conditions: in vivo, 336 h, dose 1-10 mg/kg, time 14 day
Mus musculus [16] = assay: Cognitive enhancing effect in SAMP8 mouse assessed as longer exploration time at 10 mg/kg, sc for 2 weeks by Novel object recognition test; format: functional, organism-based
Mus musculus [17] = assay: Cognitive enhancing effect in SAMP8 mouse assessed as improvement of spontaneous alternation behavior by analyzing entry to different arm at 1 to 10 mg/kg, sc for 2 weeks by Y-maze test; format: functional, organism-based; conditions: dose 1-10 mg/kg
Mus musculus [18] = assay: Cognitive enhancing effect in aged ICR mouse assessed as longer exploration time at 10 mg/kg, sc for 2 weeks by novel object recognition test; format: functional, organism-based
Mus musculus [19] = assay: Cognitive enhancing effect in SAMP8 mouse assessed as effect on locomotion by analyzing entry to different arm at 1 to 10 mg/kg, sc for 2 weeks by Y-maze test; format: functional, organism-based; conditions: dose 1-10 mg/kg
Mus musculus [20] = assay: Cognitive enhancing effect in aged ICR mouse assessed as improvement of spontaneous alternation behavior by analyzing entry to different arm at 10 mg/kg, sc for 2 weeks by Y-maze test; format: functional, organism-based
[21] = Drug uptake in ICR mouse blood at 10 mg/kg,sc and measured upto 120 mins by LC-MS analysis; format: ADME, organism-based; conditions: read-out: Drug uptake
[22] = Drug uptake in ICR mouse brain at 10 mg/kg,sc and measured upto 120 mins by LC-MS analysis; format: ADME, organism-based; conditions: read-out: Drug uptake
[23] = Drug uptake in ICR mouse blood at 10 mg/kg,sc and measured at 60 mins by LC-MS analysis; format: ADME, organism-based; conditions: read-out: Drug uptake
[24] = Drug uptake in ICR mouse brain at 10 mg/kg,sc and measured at 60 mins by LC-MS analysis; format: ADME, organism-based; conditions: read-out: Drug uptake

CO[C@H]1[C@H](O[C@@H]2C=C3[C@H](O)C[C@@]4(O)[C@@H]5[C@@H](O)[C@H](O)[C@H]([C@H](C)CC[C@H](CO)C(C)C)[C@@]5(C)CC[C@@H]4[C@@]3(C)CC2)OC[C@@H](O)[C@@H]1O
Activity (PC-12 [1]; time 6.0 day): inactive

CO[C@H]1[C@H](O[C@@H]2C=C3[C@H](O)C[C@@]4(O)[C@@H]5[C@@H](O)[C@H](O)[C@H]([C@H](C)CC[C@H](CO[C@@H]6OC[C@@H](O)[C@H](O)[C@H]6O)C(C)C)[C@@]5(C)CC[C@@H]4[C@@]3(C)CC2)OC[C@@H](O)[C@@H]1O
Activity (PC-12 [1]; time 6 day): 43% | Activity (PC-12 [2]): Dose-Dependent Effect | Activity (PC-12 [3]): Tde | Activity (PC-12 [4]): inactive | Activity (PC-12 [5]): inactive | Activity (PC-12 [6]): inactive | Activity (PC-12 [7]): inactive | Activity (PC-12 [8]): inactive | Activity (PC-12 [9]): Active | Activity (PC-12 [10]): Active | Activity (PC-12 [11]): inactive | Activity (PC-12 [12]): inactive | Activity (PC-12 [13]): Active | Activity (PC-12 [14]): Non-Toxic | Activity [15]: Non-Toxic | Activity (Mus musculus [16]): Active | Activity (Mus musculus [17]): Active | Activity (Mus musculus [18]): Active | Activity (Mus musculus [19]): inactive | Activity (Mus musculus [20]): Active | concentration at 2 h [21]: 7.7 ng/mL | concentration at 2 h [22]: 5 ng/g | concentration at 1 h [23]: 2000 ng/mL | concentration at 1 h [24]: 30 ng/g

CO[C@@H]1[C@@H](O)[C@H](OC[C@@H](CC[C@@H](C)[C@H]2[C@@H](O)[C@H](O)[C@@H]3[C@]2(C)CC[C@H]2[C@@]3(O)C[C@@H](O)C3=C[C@@H](O[C@@H]4OC[C@@H](O)[C@H](O)[C@H]4OC)CC[C@@]32C)C(C)C)OC[C@H]1O
Activity (PC-12 [1]; time 6 day): 43%

From ChEMBL document CHEMBL5236652, “Neuritogenic steroid glycosides from crown-of-thorns starfish: Possible involvement of p38 mitogen-activated protein kinase and attenuation of cognitive impairment in senescence-accelerated mice (SAMP8) by peripheral administration” (Bioorg Med Chem, 2023)
